Data on 71 molecules can be found in PubChem BioAssay AID2253 (Southern Research Specialized Biocontainment Screening …, 2010).

Broadly, the pEC50 is the negative decadic logarithm of the EC50, by convention in mol/L.

Each structure is given as a SMILES string. pEC50: −log10 of the molar value.

This experiment relates to THP-1 viability, CellTiter-Glo luminescence, 72 h. Description: THP-1 cell cytotoxicity, dose response, cytotoxicity control for Salmonella PhoP regulon inhibitors, S. typhimurium screen hits (AID 2253).
As for `COc1ccc(/C=N/Nc2cc(C)nc3c(C)cccc23)cc1`, the negative-log EC50 (pEC50) was 5.14. As for `CCN1/C(=C/C=C/c2sc3ccccc3[n+]2CC)Sc2ccccc21`, the figure is 6.37; as for `O=C1OC(/C(=C\Nc2ccc(F)cc2F)[N+](=O)[O-])c2ccccc21` (stereo unspecified), 4.50; as for `CCc1ccc2[nH]c(=O)c(CN(Cc3ccccc3)C(=O)Nc3ccccc3OC)cc2c1`, 4.37. As for `COc1ccc(C(=O)N2CCc3cc(OC)c(OC)cc3C2)cc1OC`, the figure is 4.44; as for `Nc1ccc(N(c2ccccc2)c2ccc(N)cc2)cc1`, 5.31; as for `CCCCCCCCCCOC(=O)Cn1c(COc2ccccc2)[n+](C)c2ccccc21`, 5.08. As for `Oc1c(Cl)cc(Cl)c2cccnc12`, the figure is 4.89. `Nc1nonc1-n1nnc(C(=O)N/N=C/c2cc(Br)ccc2O)c1CSC1=NCCS1`: the pEC50 was 5.81. As for `Cc1ccc(C(=O)N/N=C/c2ccc([N+](=O)[O-])s2)cc1`, the figure is 4.91. As for `Cc1ccc(N=Nc2ccc(O)c(/C=N\NC(=O)c3ccc(N)cc3)c2)cc1C`, the figure is 5.48; as for `CCOc1cc(/C=N/N=C(N)N)ccc1OCc1ccc(Cl)cc1`, 5.28; as for `Cc1nn(-c2ccccc2)c(C)c1/C=N/NC(=O)c1cc(-c2cccc3ccccc23)n[nH]1`, 4.76. As for `CC1(C)SC(=S)N(NC(=O)Nc2ccccc2)C1N(O)C(=O)Nc1ccccc1` (stereo unspecified), the figure is 4.42. On to `COc1cccc(Nc2nc(NCC3CCCO3)c3ccccc3n2)c1` (stereo unspecified), for which the pEC50 was 5.54. As for `COc1ccc(NC2=NC3(CCCCC3)N=C(N)N2)cc1`, the figure is 4.46; as for `Cc1cccc(Nc2nc(NCc3ccco3)c3ccccc3n2)c1`, 5.28; as for `NC1=NC(=Nc2ccc(Cl)cc2)c2ccccc21`, 4.65. As for `O=[N+]([O-])c1ccc(O)c2ncccc12`, the figure is 5.08; as for `Cc1nc([N+](=O)[O-])c(Br)n1CC(=O)c1ccccc1`, 4.75; as for `CCCCCn1c(N)c(C(=O)NCc2cccs2)c2nc3ccccc3nc21`, 4.81.

As to `Cc1ccc(-n2sc3ccccc3c2=O)cc1S(=O)(=O)N1CCCCC1`, the negative logarithm of the EC50 (pEC50) was 5.56. On to `COc1ccc(/C=N/Nc2cc(C)nc3ccccc23)cc1`, for which the pEC50 is 5.12.

Regarding `S=C(Nc1ccccc1)Nc1nc2ccccc2n1CCOc1ccc(Cl)cc1`, the negative-log EC50 (pEC50) is 4.82. As for `Cc1ccc2cccnc2c1NC(=S)NC(=O)c1ccccc1`, the figure is 4.60; as for `CC(C)COc1ccc(Cc2cnc(N)nc2N)cc1`, 4.43; as for `CN(C)CC(C(=O)c1ccccc1)c1ccccc1` (stereo unspecified), 5.31. As for `CCC(C)(C)c1ccc(OCCCC[n+]2ccc(C)cc2)c(C(C)(C)CC)c1`, the figure is 5.83; as for `Cc1cc(C(=O)N/N=C/c2cc(Br)cc(Br)c2OC(=O)c2ccccc2)n[nH]1`, 5.12. As for `CC(=O)NC(c1ccc(C)cc1)c1cc([N+](=O)[O-])c2cccnc2c1O` (stereo unspecified), the figure is 5.19; as for `Oc1cccc2ccc(Nc3ccccn3)nc12`, 5.67; as for `COc1ccc(NS(=O)(=O)c2cc(C)ccc2NC(=O)c2cc(C)oc2C)cc1`, 6.59. As for `CCn1c(SCC(=O)Nc2ccc3c(c2)oc2ccccc23)nnc1-c1ccc(N)cc1`, the pEC50 is 4.52. As for `CCCn1c(NCc2c[nH]c3ccccc23)nc2ccccc21`, the figure is 4.64; as for `OC1(c2cccc(C(F)(F)F)c2)CCN(c2ncnc3c2[nH]c2ccccc23)CC1`, 4.75; as for `CN(C)c1ccc([C@@H]2[C@@H]([N+](=O)[O-])[C@H]3C=Cc4ccccc4N3[C@H]2C(=O)c2ccc(Cl)cc2)cc1`, 4.69. As for `CNc1nc(NCc2ccccc2)c2ccccc2n1`, the figure is 5.00. For `c1ccc2c(c1)CCN(c1ncnc3c1[nH]c1ccccc13)C2`, the negative logarithm of the EC50 (pEC50) is 4.97. Regarding `Cc1cc(NC(c2cccnc2)c2ccc3cccnc3c2O)no1` (stereo unspecified), the pEC50 is 5.75. As for `O=S(=O)(Nc1cc(Sc2ncn[nH]2)c(O)c2ccccc12)c1ccccc1`, the figure is 5.27; as for `O=C(NC(NC(=S)Nc1ccc(Cl)c(Cl)c1)C(Cl)(Cl)Cl)c1ccco1` (stereo unspecified), 4.63. As for `CCCCCCCCCCOC(=O)Cn1c(COc2ccc(C)cc2)[n+](C)c2ccccc21`, the figure is 5.47; as for `O=C(NNc1c2ccccc2nc2ccccc12)c1cccc(O)c1`, 4.63. As for `CCc1ccc(C(c2c(C)nn(-c3ccccc3)c2N)c2c(C)nn(-c3ccccc3)c2N)cc1`, the figure is 4.34; as for `O=[N+]([O-])c1ccc(-n2nnnc2-c2ccccc2)c([N+](=O)[O-])c1`, 4.99; as for `COc1ccccc1/C=C1\CCCC2=C1Nc1nnnn1C2c1ccccc1OC` (stereo unspecified), 4.71. `Cc1ccc(Cn2c(=N)n(CC(=O)c3ccc([N+](=O)[O-])cc3)c3ccccc32)cc1`: the negative-log EC50 (pEC50) was 5.09. As for `COc1ccccc1CNCC(O)Cn1c2ccccc2c2ccccc21` (stereo unspecified), the figure is 5.09; as for `N#C/C(=C\c1c(Cl)cccc1Cl)c1nc2ccccc2[nH]1`, 4.55; as for `O=S(=O)(/N=C(/Nc1cccc2ccccc12)c1ccccc1)c1cccs1`, 4.54. As for `Oc1ccc(NCc2ccccc2OCc2ccccc2F)cc1`, the figure is 4.70; as for `CN1CCN(C(c2ccc(C(F)(F)F)cc2)c2cc(Cl)c3cccnc3c2O)CC1` (stereo unspecified), 5.53. As for `c1ccc(CNc2nc(N3CCN(Cc4ccccc4)CC3)nc3ccccc23)cc1`, the figure is 4.67. In the case of `COc1ccc(CCNC(=S)Nc2cccc3ccccc23)cc1`, the negative-log EC50 (pEC50) was 4.50. As for `CCOC(=O)N1CCN(S(=O)(=O)c2ccc(C(=O)NNc3nc4cc(C)cc(C)c4s3)cc2)CC1`, the figure is 5.54. As for `CCCCCCCOC(=O)C[N+](C)(C)CCOC1CC2CCC1(C)C2(C)C` (stereo unspecified), the figure is 5.68; as for `O=C(O)C1Nc2c(O)cccc2C2C=CCC12` (stereo unspecified), 4.65; as for `O=C1c2ccccc2-c2onc3ccc(NCc4ccco4)c1c23`, 4.75. Regarding `Cc1c(C(=O)Nc2cccc(Cl)c2)c2ccccn2c1CCc1ccncc1`, the negative-log EC50 (pEC50) was 4.61. As for `O=C(N/N=C/C1CC=CCC1)c1ccc(Cl)cc1O` (stereo unspecified), the figure is 4.58; as for `COc1cc(/C=C/[N+](=O)[O-])ccc1O`, 4.90; as for `c1ccc2c(C3=NNC(=NC4CCCCC4)SC3)c[nH]c2c1`, 4.72. As for `Cc1cc(/C=N/n2c(COc3ccccc3C)nc3ccccc3c2=O)c(O)c([N+](=O)[O-])c1`, the figure is 5.60. With `N#Cc1c(NC(=O)c2cnccn2)sc2c1CCCC2`, the pEC50 is 5.03. As for `O=[N+]([O-])/C=C/c1cc2ccccc2[nH]1`, the figure is 4.50; as for `O=S1(=O)N=C(N/N=C/c2ccccn2)c2ccccc21`, 4.64. As for `CC(C)(C)c1ccc(C(=O)NC(=S)NCc2cccnc2)cc1`, the figure is 4.33; as for `C[C@H]1c2cccc(O)c2C(O)=C2C(=O)[C@]3(O)C(O)=C(C(N)=O)C(=O)[C@@H](N(C)C)C3[C@@H](O)C21` (stereo partly specified), 4.51. As for `CN(C)c1ccc(O)c2c1CC1CC3[C@@H](N(C)C)C(=O)C(C(N)=O)=C(O)[C@]3(O)C(=O)C1=C2O` (stereo partly specified), the figure is 4.43. As for `COC(=O)C(C)NC(=S)N1CCN(c2c(F)cc3c(=O)c(C(=O)O)cn(C4CC4)c3c2OC)CC1C` (stereo unspecified), the negative-log EC50 (pEC50) was 4.70. As for `Cc1[nH]c2ccccc2c1C1=NNC(=Nc2ccc(F)cc2)SC1`, the figure is 4.90.
